Test systems include A498 renal; ACHN renal; CCRF-CEM leukemia; DU-145 prostate; HCT-116 colon; HS 578T breast; K-562 leukemia; KM12 colon; MCF7 breast; MOLT-4 leukemia; NCI-H522 lung; OVCAR-8 ovarian; SF-295 CNS; UO-31 renal; IGROV1 ovarian; OVCAR-5 ovarian; RPMI-8226 leukemia; HL-60(TB) leukemia; MALME-3M melanoma.
Holding throughout (assay): inhibition of tumour cell growth, NCI panel, 48 h

Molecules are shown by their SMILES.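 A five-concentration, 48-hour dose response in 96-well plates underlies each endpoint, interpolated linearly between surrounding concentrations. TGI denotes the concentration required for complete inhibition of growth.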

Turning to `C=CCN(CCN(CC=C)S(=O)(=O)c1ccc(C)cc1)S(=O)(=O)c1ccc(C)cc1`, the TGI in the experiment with A498 renal, in the experiment with ACHN renal, in the experiment with CCRF-CEM leukemia, in the experiment with DU-145 prostate, with HCT-116 colon and with HS 578T breast was more than 100 µM each time. Also, the TGI with K-562 leukemia, in the experiment on KM12 colon, in the experiment with MCF7 breast, in the experiment with MOLT-4 leukemia, in the experiment with NCI-H522 lung and in the experiment with OVCAR-8 ovarian was more than 100 µM throughout. Moreover, the TGI in the experiment on SF-295 CNS and with UO-31 renal was more than 100 µM throughout.
`CCOC(=O)/C=C(/C(=O)OCC)n1ccc(=O)n(Cc2cnnn2CCCCOC(C)=O)c1=O`: the TGI with ACHN renal was more than 100 µM; with CCRF-CEM leukemia, 30.9 µM; in the experiment on DU-145 prostate it was more than 100 µM; with HCT-116 colon, more than 100 µM; in the experiment on HS 578T breast, more than 100 µM; in the experiment with IGROV1 ovarian, more than 100 µM. For the same compound, the TGI was more than 100 µM in the experiment with K-562 leukemia; more than 100 µM in the experiment on KM12 colon; more than 100 µM with MCF7 breast; more than 100 µM in the experiment with MOLT-4 leukemia; 42.6 µM in the experiment with NCI-H522 lung; more than 100 µM with OVCAR-5 ovarian. Moreover, the TGI in the experiment on OVCAR-8 ovarian, in the experiment on RPMI-8226 leukemia, in the experiment with SF-295 CNS and in the experiment on UO-31 renal was more than 100 µM throughout.
For `Cc1ccc(S(=O)(=O)NC(=O)NC(CCC(N)=O)C(=O)O)cc1` (stereo not given), the TGI in the experiment on ACHN renal, with CCRF-CEM leukemia, in the experiment with DU-145 prostate, in the experiment with HCT-116 colon, with HL-60(TB) leukemia and in the experiment on HS 578T breast was more than 100 µM in each case. Besides, the TGI in the experiment on IGROV1 ovarian, with K-562 leukemia, in the experiment on KM12 colon, with MALME-3M melanoma, in the experiment with MCF7 breast and in the experiment with MOLT-4 leukemia was more than 100 µM throughout. Also, the TGI with NCI-H522 lung, in the experiment with OVCAR-5 ovarian, in the experiment on OVCAR-8 ovarian, with RPMI-8226 leukemia, with SF-295 CNS and in the experiment with UO-31 renal was more than 100 µM in each case.
Take `O=C1/C(=C/c2ccccc2)CCCc2ccccc21`: the TGI with ACHN renal was 47 µM; in the experiment with CCRF-CEM leukemia, 43.6 µM; with DU-145 prostate, 54.7 µM; with HCT-116 colon it was 30.7 µM; in the experiment on HL-60(TB) leukemia, 35.5 µM; in the experiment on HS 578T breast, 40.4 µM. Besides, the TGI in the experiment with IGROV1 ovarian was determined as 38.8 µM; in the experiment with K-562 leukemia, 49.4 µM; with KM12 colon it was 35.2 µM; with MALME-3M melanoma it was 42 µM; with MCF7 breast it was 41.6 µM; with MOLT-4 leukemia, 48.1 µM. Further, the TGI is 51.6 µM in the experiment on NCI-H522 lung; 42.2 µM with OVCAR-5 ovarian; 45.5 µM in the experiment with OVCAR-8 ovarian; more than 100 µM in the experiment on RPMI-8226 leukemia; 35.9 µM with SF-295 CNS; 31.9 µM in the experiment with UO-31 renal.
Take `NC(N)=N/N=C/c1c(-c2cc([N+](=O)[O-])c(Cl)cc2Cl)nc2n1CCS2`: the TGI in the experiment on A498 renal was more than 100 µM; in the experiment on ACHN renal it was more than 100 µM; in the experiment with CCRF-CEM leukemia, more than 100 µM; in the experiment on DU-145 prostate it was 87.2 µM; with HCT-116 colon it was more than 100 µM; in the experiment on HL-60(TB) leukemia, 41 µM. Further, the TGI was more than 100 µM in the experiment with HS 578T breast; 36.4 µM in the experiment on IGROV1 ovarian; more than 100 µM with K-562 leukemia; more than 100 µM in the experiment with KM12 colon; 57.9 µM in the experiment on MALME-3M melanoma; 58.6 µM in the experiment with MOLT-4 leukemia. Besides, the TGI was 51.5 µM in the experiment with NCI-H522 lung; more than 100 µM with OVCAR-5 ovarian; more than 100 µM with OVCAR-8 ovarian; more than 100 µM in the experiment on RPMI-8226 leukemia; 70.4 µM in the experiment on SF-295 CNS; 38.2 µM in the experiment on UO-31 renal.
For `CNC(=S)/C(C#N)=C(\N)N1CCCC1`, the TGI in the experiment on A498 renal, in the experiment with ACHN renal, with CCRF-CEM leukemia, in the experiment with DU-145 prostate, in the experiment on HCT-116 colon and with HL-60(TB) leukemia was more than 100 µM throughout. In addition, the TGI in the experiment on HS 578T breast, with IGROV1 ovarian, with K-562 leukemia, in the experiment on KM12 colon, in the experiment with MALME-3M melanoma and with MOLT-4 leukemia was more than 100 µM in each case. Further, the TGI with NCI-H522 lung, with OVCAR-5 ovarian, in the experiment with OVCAR-8 ovarian, in the experiment on RPMI-8226 leukemia and in the experiment with UO-31 renal was more than 100 µM in each case.
Take `O=C(Nc1ccc2cc3ccccc3cc2c1)c1cc2c(cc1Cl)Sc1nccn1S2(=O)=O`: the TGI is more than 100 µM with ACHN renal; more than 100 µM in the experiment on DU-145 prostate; more than 100 µM in the experiment with HCT-116 colon; 46.9 µM with HL-60(TB) leukemia; more than 100 µM in the experiment with HS 578T breast; more than 100 µM with IGROV1 ovarian. For the same compound, the TGI in the experiment on K-562 leukemia, with KM12 colon, with MALME-3M melanoma, with MCF7 breast, in the experiment on MOLT-4 leukemia and in the experiment on NCI-H522 lung was more than 100 µM throughout. For the same compound, the TGI with OVCAR-5 ovarian is 93.5 µM; in the experiment on OVCAR-8 ovarian, more than 100 µM; in the experiment with RPMI-8226 leukemia it was more than 100 µM; with SF-295 CNS it was more than 100 µM; in the experiment on UO-31 renal, more than 100 µM.
For the compound `O=C1NC(=Nc2ccccc2)C(=Nc2ccccc2)N1c1ccccc1`, the TGI stood at 31 µM in the experiment on A498 renal; 30.6 µM with ACHN renal; 76.3 µM in the experiment on CCRF-CEM leukemia; 25.2 µM in the experiment on DU-145 prostate; 32.3 µM in the experiment on HCT-116 colon; 52.8 µM in the experiment with HL-60(TB) leukemia. Besides, the TGI in the experiment on HS 578T breast is 42.9 µM; in the experiment with IGROV1 ovarian, 31 µM; with K-562 leukemia it was 72.2 µM; in the experiment on KM12 colon, 32.8 µM; with MALME-3M melanoma, 31.6 µM; with MOLT-4 leukemia, 72.8 µM. Also, the TGI is 11.5 µM in the experiment on NCI-H522 lung; 32.7 µM in the experiment on OVCAR-5 ovarian; 29.4 µM in the experiment on OVCAR-8 ovarian; 76.8 µM in the experiment on RPMI-8226 leukemia; 29.4 µM in the experiment with SF-295 CNS; 30.1 µM in the experiment with UO-31 renal.
Consider `Cc1ccc(SCC(OCn2cnc3c(Cl)nc(N)nc32)[C@H](C)F)cc1` (stereo not given in full), for which the TGI is more than 100 µM in the experiment on ACHN renal; more than 100 µM in the experiment with CCRF-CEM leukemia; more than 100 µM in the experiment on DU-145 prostate; more than 100 µM in the experiment on HCT-116 colon; 96.8 µM in the experiment on HL-60(TB) leukemia; more than 100 µM in the experiment on HS 578T breast. The TGI in the experiment with IGROV1 ovarian is more than 100 µM; in the experiment with KM12 colon, more than 100 µM; in the experiment with MALME-3M melanoma it was more than 100 µM; with MCF7 breast it was more than 100 µM; in the experiment with MOLT-4 leukemia it was more than 100 µM; with NCI-H522 lung, 29.4 µM. The TGI in the experiment on OVCAR-5 ovarian, in the experiment on OVCAR-8 ovarian, with RPMI-8226 leukemia, in the experiment with SF-295 CNS and in the experiment with UO-31 renal was more than 100 µM each time.
Take `CC(=O)NC1C(OCc2ccccc2)OC(CO)C(O)C1OCC(=O)N[C@@H](C)C(=O)N[C@H](CCC(=O)NCCNc1ccc([N+](=O)[O-])c2[nH]c3ccccc3c(=O)c12)C(N)=O` (stereo not given in full): the TGI is 58 µM in the experiment with A498 renal; 61.4 µM with ACHN renal; more than 100 µM with CCRF-CEM leukemia; more than 100 µM with DU-145 prostate; more than 100 µM with HCT-116 colon; more than 100 µM in the experiment on HL-60(TB) leukemia. Further, the TGI in the experiment with HS 578T breast, in the experiment with K-562 leukemia, with KM12 colon, in the experiment with MALME-3M melanoma, with NCI-H522 lung and in the experiment with OVCAR-5 ovarian was more than 100 µM throughout. In addition, the TGI is 61.2 µM in the experiment with OVCAR-8 ovarian, more than 100 µM in the experiment on RPMI-8226 leukemia, more than 100 µM in the experiment with SF-295 CNS and 37.4 µM with UO-31 renal.
As to `CCOC1CCN(C(=O)c2ccccc2)O1` (stereo not given), the TGI in the experiment with ACHN renal, with CCRF-CEM leukemia, in the experiment on DU-145 prostate, with HCT-116 colon, with HL-60(TB) leukemia and with HS 578T breast was more than 10 µM each time. Moreover, the TGI with IGROV1 ovarian, in the experiment with K-562 leukemia, in the experiment with MALME-3M melanoma, with MCF7 breast, in the experiment with MOLT-4 leukemia and with NCI-H522 lung was more than 10 µM throughout. Further, the TGI in the experiment on OVCAR-5 ovarian, in the experiment on OVCAR-8 ovarian, in the experiment on RPMI-8226 leukemia, in the experiment with SF-295 CNS and in the experiment with UO-31 renal was more than 10 µM in each case.
For the compound `COCOc1cc(OC)ccc1C/C(=N/O)C(=O)OC`, the TGI with ACHN renal, in the experiment with CCRF-CEM leukemia, in the experiment on DU-145 prostate, with HCT-116 colon, in the experiment with HL-60(TB) leukemia and with HS 578T breast was more than 100 µM each time. The TGI with IGROV1 ovarian, with K-562 leukemia, in the experiment on KM12 colon, with MALME-3M melanoma, with MCF7 breast and in the experiment with MOLT-4 leukemia was more than 100 µM throughout. Further, the TGI in the experiment with NCI-H522 lung, in the experiment on OVCAR-5 ovarian, with OVCAR-8 ovarian, in the experiment on SF-295 CNS and with UO-31 renal was more than 100 µM in each case.
Turning to `CC(=O)n1nc(-c2ccc3ccccc3c2)nc1C`, the TGI in the experiment on ACHN renal, in the experiment with CCRF-CEM leukemia, with DU-145 prostate, with HCT-116 colon, in the experiment with HL-60(TB) leukemia and with HS 578T breast was more than 100 µM throughout. For the same compound, the TGI in the experiment on IGROV1 ovarian, in the experiment with K-562 leukemia, in the experiment on KM12 colon, in the experiment on MALME-3M melanoma, with MCF7 breast and with MOLT-4 leukemia was more than 100 µM in each case. The TGI in the experiment on NCI-H522 lung, in the experiment with OVCAR-5 ovarian, in the experiment on OVCAR-8 ovarian, with SF-295 CNS and in the experiment with UO-31 renal was more than 100 µM in each case.
